Results as given in US9938316B2, “Selective inhibitors of α2 isoform of Na,K-ATPase and use thereof for reduction of intra-ocular pressure and as cardiotonic agents” (priority 2013, dated 2018).

Experiments:
[1] = system: intra-ocular pressure (IOP) of rabbits; assay: IB-MECA-induced ocular hypertension in rabbits; assay type: in vivo, New Zealand white rabbits; conditions: single drop, 1 μM
Experimental: IB-MECA induces acute ocular hypertension by a different and well-defined mechanism. Namely, IB-MECA is a selective agonist of the A3-adenosine receptor, and rises aqueous humour inflow and IOP by activating Cl channels of the NPE cells (18, 19). […] FIG. 8A depicts the effects of DMe (0.1-1 mM) applied prior to the IB-MECA, and a similar result was obtained for DGlyN (not shown). FIG. 8B depicts effects of digoxigenin, DGlyN and DMe (1 mM) applied after the IB-MECA.
(§1) New Zealand white rabbits (3-3.5 kg) about 1 year old, of either sex, were housed individually in separate cages in animal room conditions on a reversed, 12-hour dark/light cycle. For the experiments the animals were transferred to rabbit restrainers in a quiet and calm atmosphere (FIG. 1). […] Animal care and treatment were subject to the approval of the institutional committee for animal experiments, Weizmann Institute IACUC permission (no 04270911-2).
(§2) IOP (mm Hg) of rabbits was measured using a calibrated Pneumatonometer (Model 30, Reichert technologies, FIG. 1). A local anesthetic Oxybuprocaine HCl (0.4%, 25 μl) was applied to each cornea about a minute before IOP measurements. Two baseline IOP readings were taken before topical administration of the CG (or PBS as control) and after half an hour (Zero time). […] At zero time one drop of 4AP (40 mg/ml, 30 μl) or IB-MECA (1 μM, 30 μl) was administered to both eyes of each rabbit IOP measurements were made at different times as indicated in each experiment. In the experiments for which the IOP was elevated for several hours, 4AP was added every […] or IB-MECA every 2 hours. […] In all cases the figures depict the average effect on IOP (i.e for four or six eyes) compared to control ±SEM. […] Significance of differences from the control was calculated by the unpaired Students t-test (p values), p values <0.05 were considered significant. Corneal thickness (μm) was measured using an ultrasonic pachymeter (Sonogage pachometer, Cleveland, USA), before and during the experiment with CG and 4AP treatments. The values represent averages of three independent measurements for each eye.

[2] = molecular target: T1, Na,K-ATPase α1β1 isoform complex (Homo sapiens, UniProt P05023); assay: biochemical; conditions: Ki ± S.E. α1, Table 2; α1β1
Experimental: (§3) Methods for transformation, culture of P. pastoris clones, protein expression of Na,K-ATPase human isoforms (α1β1, α2β1, α3β1), membrane preparation, solubilization of membranes in DDM, and purification on BD-Talon beads have been described in detail (6-9, 11, 25). In initial experiments the three purified isoform complexes (0.3-0.5 mg/ml) were eluted from the BD-Talon beads in a solution containing Imidazole 170 mM, NaCl 100 mM; Tricine.HCl 20 mM pH 7.4; C12E8, 0.1 mg/ml; SOPS 0.07 mg/ml cholesterol 0.01 mg/ml, glycerol 25%. In later experiments the isoforms complexes were reconstituted with purified FXYD1 on the BD-Talon beads together as described in detail in (10, 11) prior to elution of α1β1FXYD1, α2β1FXYD1 and α3β1FXYD1 complexes. The proteins were stored at −80° C. Protein concentration was determined with BCA (B9643 Sigma).
(§4) Inhibition of Na,K-ATPase activity of the detergent-soluble α1β1, α2β1, and α3β1 complexes by CG's was determined as described (6) using either the αβ or αβFXYD1 complexes. […] The K0.5K was estimated by varying K concentration in a medium containing a fixed total K+choline chloride of 60 mM, and constant NaCl of 140 mM. Curves were fitted to the Hill function v=Vmax*[S]^n/([S]^n+K^n), where S is the K concentration, n is the Hill coefficient and K^n is K0.5K. For comparison of different curves the ratio v/Vmax for each curve was calculated and replotted. In experiments to assess inhibition of Na,K-ATPase activity by cardiac glycosides of the present invention, the percent inhibition VCG/V0 was calculated and Ki values were obtained by fitting the data to the function VCG/V0=Ki/([CG]+Ki)+ c. Inhibition was estimated in 3-8 separate experiments and average Ki values ±SEM were calculated. Significance of differences between Kiα1 and Kiα2 was calculated by the unpaired Student's t-test (p values). […] P values <0.05 were considered significant.

[3] = system: Na,K-ATPase α2β1 isoform complex; assay: biochemical; assay type: biochemical, human; conditions: for Selectivity ratio Ki α1/α2 ± S.E.: Kiα1β1/Kiα2β1; for Selectivity α1β1/α2/β1: ratio of Ki, Table 6
Experimental: as §3, §4

[4] = molecular target: T2, Na,K-ATPase α2β1 isoform complex (Homo sapiens, UniProt P50993); assay: biochemical; assay type: biochemical; conditions: Ki ± S.E. α2, Table 2; α2β1
Experimental: as §3, §4

[5] = molecular target: T2, Na,K-ATPase α2β1 isoform complex; assay: biochemical; assay type: biochemical; parameters: made in house; host or cells: Pichia pastoris SMD1165; conditions: Ki, nM ± SEM α2β1, Table 6
Experimental: as §3, §4

[6] = system: Na,K-ATPase α2β3 isoform complex; assay: biochemical; parameters: species or system human; conditions: ratio of Ki, Table 6
Excerpt: (§5) Human β1, β2 and β3 were cloned into the pHIL-D2 expression vector containing the human α1 or α2. pHIL-D2 expression vectors containing porcine (p) α1, human (h) α1 or human α2 with Hisx10 tagged porcine β1 were previously generated (7, 9). Human β1 (Accession: P05026), human β2 (Accession: P14415) and human β3 (Accession: […]) cDNAs in pSD5 vector were a gift from K. Geering Univ. Lausanne Switzerland. The open reading frames and flanking regions of hβ1, hβ2 and hβ3 (in pSD5) were amplified separately by polymerase chain reaction (PCR) using synthetic primers containing BglII and SalI cleavage sites. Each one of the amplified fragments were digested with BglII and SalI and ligated to BglII and SalI treated plasmid pHIL-D2-(pα1/His10pβ1) to generate pHIL-D2 (pα1/His10hβ1or2or3). hβ1, hβ2 and hβ3 containing fragments were excised from pHIL-D2-(pα1/His10hβ1or2or3) and subcloned into pHIL-D2-(hα1/His10pβ1) or pHIL-D2-(hα2/His10pβ1) to produce pHIL-D2-(hα1/His10hβ1or2or3) and pHIL-D2-(hα2/His10hβ1or2or3). The newly created plasmids were analyzed for correct integration and correct sequence of the insert by restriction enzymatic digestions and sequencing. DNA of each construct was prepared in large quantities in E. coli XL-1 Blue for Pichia pastoris transformation.
as §4

[7] = system: Na,K-ATPase α2β2 isoform complex; assay: biochemical; parameters: species or system human; conditions: ratio of Ki, Table 6
Excerpt: as §5, §4

[8] = molecular target: T3, Na,K-ATPase α2β2 isoform complex (Homo sapiens, UniProt P50993); assay: biochemical
T3 construct: made in house; host or cells: Pichia pastoris SMD1165
Excerpt: as §5, §4

[9] = molecular target: T4, Na,K-ATPase α2β3 isoform complex (Homo sapiens, UniProt P50993); assay: biochemical
T4 construct: made in house; host or cells: Pichia pastoris SMD1165
Excerpt: as §5, §4

[10] = molecular target: T1, Na,K-ATPase α1β1 isoform complex; assay: biochemical; parameters: made in house; host or cells: Pichia pastoris SMD1165; conditions: Ki, nM ± SEM α1β1, Table 6
Experimental: as §3, §4

[11] = system: intra-ocular pressure (IOP) of rabbits; assay: 4-aminopyridine (4AP)-induced ocular hypertension in rabbits; assay type: in vivo, New Zealand white rabbits
Experimental: Intra-ocular pressure in rabbits was measured using of a “Reichert Model 30™ Pneumatonometer” after anesthetizing the cornea with local anesthetic.
Since the IOP reflects a balance of the inflow and outflow of aqueous humour, reduction of the increased 4AP-induced inflow of aqueous humour by cardiac glycosides should prevent the increase in IOP. Thus, the standard experimental design to test effects of cardiac glycosides involved topical application of the compounds (1 drop in each eye) 30 minutes prior to application of 4AP and measurement of IOP every 30 minutes over five hours. […] Each experiment was done three times, but the figures depict a representative experiment using a different rabbit for each concentration of the cardiac glycoside.
DGlyN or DMe (0.1 or 1 mM) were applied one hour after the first application of 4AP, which was added every two hours.
as §1, §2

With `CNC(=O)[C@H]1O[C@@H](n2cnc3c(NCc4cccc(I)c4)ncnc32)[C@H](O)[C@@H]1O` [IB-MECA, reference compound] the “Effect on IOP” value [1] was “significant but transient increase in IOP”.
For `CCN1CCC(OC2C(O)CC(OC3C(O)CC(OC4CCC5(C)C(CCC6C5CC(O)C5(C)C(C7=CC(=O)OC7)CCC65O)C4)OC3C)OC2C)OC(C)C1` (stereo not drawn) [DEt], the Ki [2] was 53 ± 3.4 nM, the “Selectivity ratio Ki α1/α2 ± S.E.” value [3] was 2.88 ± 0.78 and the “Selectivity α1β1/α2/β1” value [3] was 5.9. The Ki [4] was 18.5 ± 4.9 nM, the Ki [5] was 23.2 ± 0.9 nM and the “Selectivity α1β1/α2β3” value [6] was 9.5. For the same compound, the “Selectivity α1β1/α2/β2” value [7] was 8.3, the Ki [8] was 16.4 ± 1.6 nM and the Ki [9] was 14.4 ± 1.27 nM. For the same compound, the Ki [10] was 138 ± 12.6 nM.
`CC(C)CN1CCC(OC2C(O)CC(OC3C(O)CC(OC4CCC5(C)C(CCC6C5CC(O)C5(C)C(C7=CC(=O)OC7)CCC65O)C4)OC3C)OC2C)OC(C)C1` (stereo not drawn) [DIB] was tested, and the Ki [5] was 20.6 ± 1.4 nM, the Ki [8] was 10 ± 0.8 nM and the Ki [9] was 5.8 nM. The “Concentration required to fully prevent the rise in IOP” value ([11]; applied topically prior to 4AP) was > 30 µM and the Ki [10] was 92 ± 8.9 nM.
With `CC1CN(C(C)(C)C)CCC(OC2C(O)CC(OC3C(O)CC(OC4CCC5(C)C(CCC6C5CC(O)C5(C)C(C7=CC(=O)OC7)CCC65O)C4)OC3C)OC2C)O1` (stereo not drawn) [DtB] the “Selectivity α1β1/α2/β1” value [3] was 6.2, the Ki [5] was 21.6 ± 5.6 nM and the “Selectivity α1β1/α2β3” value [6] was 8.2. For the same compound, the “Selectivity α1β1/α2/β2” value [7] was 7.3, the Ki [8] was 18.4 ± 1.1 nM and the Ki [9] was 16.3 ± 0.28 nM. For the same compound, the Ki [10] was 135 ± 12.1 nM.
In the case of `CC1CN(C(C)C)CCC(OC2C(O)CC(OC3C(O)CC(OC4CCC5(C)C(CCC6C5CC(O)C5(C)C(C7=CC(=O)OC7)CCC65O)C4)OC3C)OC2C)O1` (stereo not drawn) [DIP], the “Selectivity α1β1/α2/β1” value [3] is reported as 5.1, the Ki [5] is reported as 28.9 ± 1.7 nM and the “Selectivity α1β1/α2β3” value [6] is reported as 14.4. The “Selectivity α1β1/α2/β2” value [7] was 8.9, the Ki [8] was 16.7 ± 1.9 nM and the Ki [9] was 10.3 ± 1.8 nM. For the same compound, the Ki [10] was 149 ± 20.7 nM.
For `CC1CN(CC(F)(F)F)CCC(OC2C(O)CC(OC3C(O)CC(OC4CCC5(C)C(CCC6C5CC(O)C5(C)C(C7=CC(=O)OC7)CCC65O)C4)OC3C)OC2C)O1` (stereo not drawn) [DMeCF3], the Ki [2] was 199 ± 33 nM, the “Selectivity ratio Ki α1/α2 ± S.E.” value [3] was 4.50 ± 1.0 and the “Selectivity α1β1/α2/β1” value [3] was 4.1. For the same compound, the Ki [4] was 44 ± 7 nM, the Ki [5] was 28.6 ± 0.9 nM and the “Selectivity α1β1/α2β3” value [6] was 9.6. For the same compound, the “Selectivity α1β1/α2/β2” value [7] was 6.5, the Ki [8] was 18.1 ± 1.9 nM and the Ki [9] was 12.4 ± 1.5 nM. The Ki [10] was 119 ± 15 nM.
With `CC1CN(C[Si](C)(C)C)CCC(OC2C(O)CC(OC3C(O)CC(OC4CCC5(C)C(CCC6C5CC(O)C5(C)C(C7=CC(=O)OC7)CCC65O)C4)OC3C)OC2C)O1` (stereo not drawn) [DTMS] the “Selectivity α1β1/α2/β1” value [3] was 3.4, the Ki [5] was 31.5 nM and the “Selectivity α1β1/α2β3” value [6] was 13.8. For the same compound, the “Selectivity α1β1/α2/β2” value [7] was 7.2, the Ki [8] was 15 nM and the Ki [9] was 7.8 nM. It also gave a Ki [10] of 108 nM.
For `C[C@]12CC[C@H](O)C[C@H]1CC[C@@H]1[C@@H]2C[C@@H](O)[C@]2(C)[C@@H](C3=CC(=O)OC3)CC[C@]12O` [Digoxigenin, digoxigenin, reference compound], the Ki [2] was 139 ± 17 nM, the Ki [4] was 130 ± 13.5 nM and the “Time IOP is maintained at the low level” value ([11]; 1 mM, single drop, 4AP every two hours) was “about 2 hours”.
With `CCCN1CCC(OC2C(O)CC(OC3C(O)CC(OC4CCC5(C)C(CCC6C5CC(O)C5(C)C(C7=CC(=O)OC7)CCC65O)C4)OC3C)OC2C)OC(C)C1` (stereo not drawn) [DP] the “Selectivity α1β1/α2/β1” value [3] was 4.8, the Ki [5] was 18.3 ± 1.68 nM and the “Selectivity α1β1/α2β3” value [6] was 8.8. The “Selectivity α1β1/α2/β2” value [7] was 8.3, the Ki [8] was 10.5 ± 1.8 nM and the Ki [9] was 9.8 ± 1.1 nM. The Ki [10] was 87.7 ± 7.9 nM.
